{
  "source": "PubChem BioAssay (NCI)",
  "experiment_in_all_cases": "NCI anticancer screen, dose series, 48 h",
  "key": {"[1]": {"tested_on": "EKVX NSCLC"}, "[2]": {"tested_on": "RXF 393 renal"}, "[3]": {"tested_on": "M14 melanoma"}, "[4]": {"tested_on": "HOP-62 NSCLC"}, "[5]": {"tested_on": "CCRF-CEM leukemia"}, "[6]": {"tested_on": "RPMI-8226 leukemia"}, "[7]": {"tested_on": "HOP-92 NSCLC"}},
  "note": "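96-well plates; 48 h exposure; 5 concentrations. Endpoints by linear interpolation between flanking doses. Not reached: highest tested concentration assigned. TGI is the concentration that stops growth completely.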",
  "data": [
    {"smiles": "CNC(=O)OCc1cc2ccncc2c2c1[nH]c1ccccc12", "values": [
      {"measurement": "TGI", "setting": "[1]", "value": "> 100", "unit": "µM"},
      {"measurement": "TGI", "setting": "[2]", "value": 8.39, "unit": "µM"},
      {"measurement": "TGI", "setting": "[3]", "value": "> 100", "unit": "µM"},
      {"measurement": "TGI", "setting": "[4]", "value": 55, "unit": "µM"},
      {"measurement": "TGI", "setting": "[5]", "value": "> 100", "unit": "µM"},
      {"measurement": "TGI", "setting": "[6]", "value": "> 100", "unit": "µM"},
      {"measurement": "TGI", "setting": "[7]", "value": "> 100", "unit": "µM"}
    ]},
    {"smiles": "CC1OC(n2cc(I)c(=O)[nH]c2=O)C=CC1=O", "note": "(configuration not stated)", "values": [
      {"measurement": "TGI", "setting": "[1]", "value": 32.3, "unit": "µM"},
      {"measurement": "TGI", "setting": "[3]", "value": 30.6, "unit": "µM"},
      {"measurement": "TGI", "setting": "[4]", "value": 32.7, "unit": "µM"},
      {"measurement": "TGI", "setting": "[5]", "value": 7.74, "unit": "µM"},
      {"measurement": "TGI", "setting": "[6]", "value": 38.7, "unit": "µM"},
      {"measurement": "TGI", "setting": "[7]", "value": 33.9, "unit": "µM"}
    ]},
    {"smiles": "COc1cc2c3c(c1OCc1ccccc1)NCCC3NCC2", "note": "(configuration not stated)", "values": [
      {"measurement": "TGI", "setting": "[1]", "value": "> 100", "unit": "µM"},
      {"measurement": "TGI", "setting": "[2]", "value": "> 100", "unit": "µM"},
      {"measurement": "TGI", "setting": "[3]", "value": "> 100", "unit": "µM"},
      {"measurement": "TGI", "setting": "[4]", "value": "> 100", "unit": "µM"},
      {"measurement": "TGI", "setting": "[5]", "value": "> 100", "unit": "µM"},
      {"measurement": "TGI", "setting": "[6]", "value": "> 100", "unit": "µM"},
      {"measurement": "TGI", "setting": "[7]", "value": "> 100", "unit": "µM"}
    ]},
    {"smiles": "NC(=O)OCC(COc1ccc(Cl)cc1)OC(=O)c1cc([N+](=O)[O-])cc([N+](=O)[O-])c1", "note": "(configuration not stated)", "values": [
      {"measurement": "TGI", "setting": "[1]", "value": "> 100", "unit": "µM"},
      {"measurement": "TGI", "setting": "[2]", "value": "> 100", "unit": "µM"},
      {"measurement": "TGI", "setting": "[3]", "value": "> 100", "unit": "µM"},
      {"measurement": "TGI", "setting": "[4]", "value": "> 100", "unit": "µM"},
      {"measurement": "TGI", "setting": "[5]", "value": "> 100", "unit": "µM"},
      {"measurement": "TGI", "setting": "[6]", "value": "> 100", "unit": "µM"},
      {"measurement": "TGI", "setting": "[7]", "value": "> 100", "unit": "µM"}
    ]},
    {"smiles": "O=[N+]([O-])c1cc([N+](=O)[O-])c(C(Cl)C(Cl)c2ccccc2)cc1C(Cl)C(Cl)c1ccccc1", "note": "(configuration not stated)", "values": [
      {"measurement": "TGI", "setting": "[1]", "value": 4.28, "unit": "µM"},
      {"measurement": "TGI", "setting": "[2]", "value": 2.73, "unit": "µM"},
      {"measurement": "TGI", "setting": "[3]", "value": 2.93, "unit": "µM"},
      {"measurement": "TGI", "setting": "[4]", "value": 11.9, "unit": "µM"},
      {"measurement": "TGI", "setting": "[5]", "value": 5.96, "unit": "µM"},
      {"measurement": "TGI", "setting": "[6]", "value": 8.38, "unit": "µM"},
      {"measurement": "TGI", "setting": "[7]", "value": 3.26, "unit": "µM"}
    ]},
    {"smiles": "CCOC(=O)NN(C(=O)OCC)C(C(=O)c1ccc(Cl)cc1)=C1NCCN1", "values": [
      {"measurement": "TGI", "setting": "[1]", "value": "> 100", "unit": "µM"},
      {"measurement": "TGI", "setting": "[2]", "value": "> 100", "unit": "µM"},
      {"measurement": "TGI", "setting": "[3]", "value": "> 100", "unit": "µM"},
      {"measurement": "TGI", "setting": "[4]", "value": "> 100", "unit": "µM"},
      {"measurement": "TGI", "setting": "[5]", "value": "> 100", "unit": "µM"},
      {"measurement": "TGI", "setting": "[7]", "value": "> 100", "unit": "µM"}
    ]},
    {"smiles": "O=C(NCCCCCCNC(=O)NC1OCC(O)C(O)C1O)NC1OCC(O)C(O)C1O", "note": "(configuration not stated)", "values": [
      {"measurement": "TGI", "setting": "[1]", "value": "> 100", "unit": "µM"},
      {"measurement": "TGI", "setting": "[2]", "value": "> 100", "unit": "µM"},
      {"measurement": "TGI", "setting": "[3]", "value": "> 100", "unit": "µM"},
      {"measurement": "TGI", "setting": "[4]", "value": "> 100", "unit": "µM"},
      {"measurement": "TGI", "setting": "[5]", "value": "> 100", "unit": "µM"},
      {"measurement": "TGI", "setting": "[6]", "value": "> 100", "unit": "µM"},
      {"measurement": "TGI", "setting": "[7]", "value": "> 100", "unit": "µM"}
    ]},
    {"smiles": "CO[C@]12CCC(=O)N1C=Cc1c2[nH]c2ccccc12", "values": [
      {"measurement": "TGI", "setting": "[1]", "value": "> 100", "unit": "µM"},
      {"measurement": "TGI", "setting": "[2]", "value": "> 100", "unit": "µM"},
      {"measurement": "TGI", "setting": "[3]", "value": "> 100", "unit": "µM"},
      {"measurement": "TGI", "setting": "[4]", "value": "> 100", "unit": "µM"},
      {"measurement": "TGI", "setting": "[5]", "value": "> 100", "unit": "µM"},
      {"measurement": "TGI", "setting": "[6]", "value": "> 100", "unit": "µM"},
      {"measurement": "TGI", "setting": "[7]", "value": "> 100", "unit": "µM"}
    ]},
    {"smiles": "CC(C)N(C(=O)C12C3C4C5C3C1(C#N)C5C42)C(C)C", "note": "(configuration not stated)", "values": [
      {"measurement": "TGI", "setting": "[1]", "value": "> 100", "unit": "µM"},
      {"measurement": "TGI", "setting": "[3]", "value": "> 100", "unit": "µM"},
      {"measurement": "TGI", "setting": "[4]", "value": "> 100", "unit": "µM"},
      {"measurement": "TGI", "setting": "[5]", "value": "> 100", "unit": "µM"},
      {"measurement": "TGI", "setting": "[6]", "value": "> 100", "unit": "µM"},
      {"measurement": "TGI", "setting": "[7]", "value": "> 100", "unit": "µM"}
    ]},
    {"smiles": "N#CC(C(=O)C(=O)Nc1ccc(Cl)c(Cl)c1)c1ccc(Cl)cc1", "note": "(configuration not stated)", "values": [
      {"measurement": "TGI", "setting": "[1]", "value": "> 100", "unit": "µM"},
      {"measurement": "TGI", "setting": "[2]", "value": "> 100", "unit": "µM"},
      {"measurement": "TGI", "setting": "[3]", "value": "> 100", "unit": "µM"},
      {"measurement": "TGI", "setting": "[4]", "value": "> 100", "unit": "µM"},
      {"measurement": "TGI", "setting": "[5]", "value": "> 100", "unit": "µM"},
      {"measurement": "TGI", "setting": "[6]", "value": "> 100", "unit": "µM"},
      {"measurement": "TGI", "setting": "[7]", "value": 99.2, "unit": "µM"}
    ]},
    {"smiles": "CC(=O)OCc1c(C)c2ccccc2n1C(C)=O", "values": [
      {"measurement": "TGI", "setting": "[1]", "value": "> 100", "unit": "µM"},
      {"measurement": "TGI", "setting": "[2]", "value": 75.3, "unit": "µM"},
      {"measurement": "TGI", "setting": "[3]", "value": "> 100", "unit": "µM"},
      {"measurement": "TGI", "setting": "[4]", "value": "> 100", "unit": "µM"},
      {"measurement": "TGI", "setting": "[5]", "value": 73.6, "unit": "µM"},
      {"measurement": "TGI", "setting": "[7]", "value": "> 100", "unit": "µM"}
    ]},
    {"smiles": "CN1CCc2cc(O)c3cc2C1Cc1ccc(cc1)Oc1cc(ccc1O)CC1c2c(cc4c(c2O3)OCO4)CCN1C", "note": "(configuration not stated)", "values": [
      {"measurement": "TGI", "setting": "[1]", "value": 70.7, "unit": "µM"},
      {"measurement": "TGI", "setting": "[2]", "value": 60.2, "unit": "µM"},
      {"measurement": "TGI", "setting": "[3]", "value": 32.2, "unit": "µM"},
      {"measurement": "TGI", "setting": "[5]", "value": "> 100", "unit": "µM"}
    ]}
  ]
}
